Assay [1] concerns the target T1, Cyclooxygenase (Rattus norvegicus, UniProt Q63921).
T1 construct: host or cells: RBL-1 (rat basophilic leukemia)
T1 sequence (Q63921 27-602): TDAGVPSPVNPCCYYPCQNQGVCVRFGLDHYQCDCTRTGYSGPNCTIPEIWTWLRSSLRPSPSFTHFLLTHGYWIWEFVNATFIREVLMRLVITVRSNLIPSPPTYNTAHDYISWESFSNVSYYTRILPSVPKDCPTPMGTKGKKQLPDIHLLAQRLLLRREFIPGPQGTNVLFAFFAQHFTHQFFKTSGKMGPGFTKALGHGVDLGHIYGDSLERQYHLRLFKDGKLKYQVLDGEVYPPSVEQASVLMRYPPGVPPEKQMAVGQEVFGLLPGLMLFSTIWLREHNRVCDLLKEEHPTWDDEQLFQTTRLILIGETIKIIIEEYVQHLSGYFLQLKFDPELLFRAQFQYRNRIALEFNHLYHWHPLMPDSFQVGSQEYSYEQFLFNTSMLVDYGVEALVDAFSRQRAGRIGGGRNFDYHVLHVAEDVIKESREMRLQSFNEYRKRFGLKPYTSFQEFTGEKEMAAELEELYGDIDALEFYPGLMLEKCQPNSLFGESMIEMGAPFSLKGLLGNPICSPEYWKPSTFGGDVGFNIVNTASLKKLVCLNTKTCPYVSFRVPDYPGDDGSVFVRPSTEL
Description: ARBC whole cell cyclooxygenase assay (RBL-1 cells, PGF2α formation, RIA). It is filed as cell-based. The settings on record: RBL-1 whole cells; for pIC50: calcium ionophore A23187 (5 μM), read-out: ARBC: IC50 for PGF2α inhibition; for inhibition at 10 µM: read-out: ARBC: Percent inhibition of PGF2α @ 10 μM. The protocol: (§1) ARBL/ARBC Whole Cell 5-Lipoxygenase and Cyclooxygenase Assays
(§2) The rat basophilic leukemia cell line (RBL-1) was obtained from the American Type Culture Collection (Rockville, MD).
(§3) Radioimmunoassay (RIA) kits of LTB4 and PGF2.sbsb.α were obtained from Amersham (Arlington Heights, Ill.) and Seragen (Boston, Mass.), respectively.
(§4) RBL-1 cells are grown in suspension culture in Eagle's minimum essential medium supplemented with 12% fetal bovine serum at 37° C. in an incubator supplied with air-5% carbon dioxide. Cells are harvested by centrifugation. They are washed with cold phosphate buffered saline pH 7.4 (PBS; NaCl, 7.1 g; Na2 HPO4, 1.15 g; KH2 PO4, 0.2 g; and KCl, 0.2 g/L). Cells are finally suspended in PBS containing 1.0 mM calcium at a density of 2×10^6 cells/mL. Cells are incubated with and without test agent (in DMSO) (1% DMSO is without effect on arachidonic acid metabolism) for ten minutes at room temperature. Calcium ionophore A23187 (5 μM) is added and cells are incubated for 7 minutes at 37° C. The reaction is stopped by chilling the tubes on ice for 10 minutes. Cells are separated by centrifugation and the supernatant is stored at -20° C. Aliquots (100 μL) are analyzed for LTB4 and PGF2.sbsb.α using radioimmunoassay kits as provided by the supplier.
(§5) Table 1 contains biochemical data obtained from this whole cell assay as IC50 s which are calculated as the amount of test compound causing 50% inhibition or percent of inhibition at the named micromoles (μM) of LTB4 or PGF2.sbsb.α formation.

Assay [2] concerns the target T2, 5-Lipoxygenase (Rattus norvegicus, UniProt P12527).
T2 construct: host or cells: RBL-1 (rat basophilic leukemia)
T2 sequence (P12527 1-673): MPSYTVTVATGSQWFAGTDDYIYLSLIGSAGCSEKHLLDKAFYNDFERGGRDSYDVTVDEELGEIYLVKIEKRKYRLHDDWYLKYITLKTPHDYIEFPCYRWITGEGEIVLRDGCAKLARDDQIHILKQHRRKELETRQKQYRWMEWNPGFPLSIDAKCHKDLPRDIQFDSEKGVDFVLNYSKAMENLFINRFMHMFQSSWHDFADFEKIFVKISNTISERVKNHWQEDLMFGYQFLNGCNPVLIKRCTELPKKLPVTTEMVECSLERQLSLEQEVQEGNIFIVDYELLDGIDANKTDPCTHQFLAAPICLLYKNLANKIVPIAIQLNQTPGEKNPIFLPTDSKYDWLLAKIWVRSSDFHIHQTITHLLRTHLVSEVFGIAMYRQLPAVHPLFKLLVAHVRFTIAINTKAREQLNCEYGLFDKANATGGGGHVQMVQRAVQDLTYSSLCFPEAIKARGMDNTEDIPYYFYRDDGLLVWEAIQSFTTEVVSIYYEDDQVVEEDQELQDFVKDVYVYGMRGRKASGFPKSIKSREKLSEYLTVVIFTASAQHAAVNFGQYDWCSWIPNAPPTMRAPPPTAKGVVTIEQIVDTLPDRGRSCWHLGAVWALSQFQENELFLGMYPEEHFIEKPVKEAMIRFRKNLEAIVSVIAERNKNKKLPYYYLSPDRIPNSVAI
Description: ARBL whole cell 5-lipoxygenase assay (RBL-1 cells, LTB4 formation, RIA). Format: cell-based. Conditions: RBL-1 whole cells; for inhibition at 16 µM / inhibition at 10 µM: A23187, read-out: ARBL: Percent inhibition of LTB4 @ μM noted; for pIC50: calcium ionophore A23187 (5 μM), read-out: ARBL: IC50 for LTB4 inhibition. The protocol:
as §1, §2, §3, §4, §5

Assay [3] concerns Carrageenan-Induced Rat Foot Paw Edema. Description: Carrageenan-Induced Rat Foot Paw Edema-2 (CFE-2) Assay. It is filed as in vivo. Conditions: dosed 1 hour before carrageenan, edema measured 5 hours after, probit analysis, read-out: CFE: ID40 for inhibition of swelling. The protocol: Carrageenan-Induced Rat Foot Paw Edema-2 (CFE-2) Assay: Protocol
Carrageenan solution (1% w/v) is prepared by dissolving 100 mg carrageenan (Marine Colloidal Div., Springfield, N.J.) in 10 mL of sterile saline (0.9) solution (Travenol). The solution is vortexed for 30 to 45 minutes. Animals are dosed with compound 1 hour before carrageenan challenge. Foot paw edema is induced by injecting 0.10 mL of the 1% carrageenan subcutaneously into the plantar portion of the right hind paw of each rat under light anesthesia. Initial foot paw volume is measured immediately following carrageenan challenge using mercury plethysmography (Buxco Electronics). Edema is measured 5 hours after carrageenan. The difference between the 5-hour and the initial paw volume is expressed as delta edema. The delta edema for each test group of animals is used to calculate the percent inhibition of edema achieved by the compound at the test dose compared with the vehicle control group. The data in Table 1 (the dose at which swelling is inhibited by the noted) is calculated by probit analysis for the dose at which percent inhibition occurs.
In general terms: In the carrageenan paw model, swelling and tenderness develop within hours.

pIC50: −log10 of the molar value.

Take `CC(C)(C)c1cc(Sc2n[nH]c(=O)o2)cc(C(C)(C)C)c1O` [Example 6, 5-[[3,5-Bis(1,1-dimethylethyl)-4-hydroxyphenyl]thio]-1,3,4-oxadiazol-2(3H)-one]: the “ARBC: Percent inhibition of PGF2α” value in assay [1] (@ 16 (as printed in the cell), A23187) is reported as 46%. The inhibition (usually how much of the control response was suppressed) at 16 µM in assay [2] worked out at 91%.
Take `CC(C)(C)c1cc(Sc2n[nH]c(=S)o2)cc(C(C)(C)C)c1O` [Example 7, 5-[[3,5-Bis(1,1-dimethylethyl)-4-hydroxyphenyl]thio]-1,3,4-oxadiazole-2(3H)-thione]: the pIC50 – broadly, −log10 of the IC50, conventionally taken in molar units – was 5.82 in assay [1] and 5.70 in assay [2]. In addition, the ED40 in assay [3] amounted to 8.6 mg/kg.
For `CC(C)(C)c1cc(Sc2n[nH]c(=O)s2)cc(C(C)(C)C)c1O` [Example 8, 5[[3,5-Bis(1,1-dimethylethyl)-4-hydroxyphenyl]thio]-1,3,4-thiadiazol-2(3H)-one], the inhibition at 16 µM in assay [2] was determined as 90%.
As to `CC(C)(C)c1cc(Sc2n[nH]c(=S)s2)cc(C(C)(C)C)c1O` [Example 9, 5-[[3,5-Bis(1,1-dimethylethyl)-4-hydroxyphenyl]thio]-1,3,4-thiadiazole-2(3H)-thione], the pIC50 in assay [1] is 5.44; in assay [2], 5.96.
On to `CC(C)(C)c1cc(Sc2nncs2)cc(C(C)(C)C)c1O` [Example 10, 2,6-Bis(1,1-dimethylethyl)-4-[(1,3,4-thiadiazol-2-yl)thio]-phenol], for which the inhibition at 10 µM in assay [1] (A23187) came out at 54%; in assay [2], 59%.
In the case of `CC(C)(C)c1cc(SCCc2n[nH]c(=O)o2)cc(C(C)(C)C)c1O` [Example 13, 5-[2-[[3,5-Bis(1,1-dimethylethyl)-4-hydroxyphenyl]thio]ethyl]-1,3,4-oxadiazol-2(3H)-one], the inhibition at 10 µM in assay [1] (A23187) worked out at 75%. For the same molecule, the pIC50 in assay [2] is 6.22.
For `CC(C)(C)c1cc(SCCc2n[nH]c(=S)o2)cc(C(C)(C)C)c1O` [Example 14, 5-[2-[3,5-Bis(1,1-dimethylethyl)-4-hydroxyphenyl]thio]ethyl-1,3,4-oxadiazole-2(3H)-thione], the pIC50 in assay [2] is 5.38.
As to `CC(C)(C)c1cc(SCCc2nnco2)cc(C(C)(C)C)c1O` [Example 15], the results for the inhibition at 10 µM in assay [1] (A23187) and in assay [2] were 55% and 100%, respectively.
For the molecule `CC(C)(C)c1cc(SCCc2nnc(N)o2)cc(C(C)(C)C)c1O` [Example 16], the inhibition at 10 µM in assay [2] came out at 100%.
Same read-out and setting: as for `CC(C)(C)c1cc(CCc2n[nH]c(=O)o2)cc(C(C)(C)C)c1O` [Example 23, 5-[2-[3,5-bis(1,1-dimethylethyl)-4-hydroxyphenyl]ethyl]-1,3,4-oxadiazol-2(3H)-one], the figure is 60%.
For `CC(C)(C)c1cc(CCc2nnco2)cc(C(C)(C)C)c1O` [Example 25, 2,6-Bis(1,1-dimethylethyl)-4-[2-(1,3,4-oxadiazol-2-yl)ethyl]phenol], the inhibition at 10 µM is 52% in assay [1] (A23187) and 100% in assay [2].
Regarding `CC(C)(C)c1cc(CCc2nnc(N)o2)cc(C(C)(C)C)c1O` [Example 26, 4-[2-(5-Amino-1,3,4-oxadiazol-2-yl)ethyl]-2,6-bis(1,1-dimethylethyl)phenol], the inhibition at 10 µM in assay [2] turned out to be 40%.
In the case of `CC(C)(C)c1cc(C(=O)c2nnc(N)s2)cc(C(C)(C)C)c1O` [Example 29, (5-Amino-1,3,4-thiadiazol-2-yl)[3,5-bis(1,1-dimethylethyl)-4-hydroxyphenyl]methanon], the results for the pIC50 in assay [1] and in assay [2] were 5.28 and 5.96, respectively.
As to `CSc1nnc(C(=O)c2cc(C(C)(C)C)c(O)c(C(C)(C)C)c2)s1` [Example 30], the inhibition at 10 µM in assay [1] (A23187) and in assay [2] was 100% throughout.
As for `CC(C)(C)c1cc(C(=O)c2n[nH]c(=S)s2)cc(C(C)(C)C)c1O` [Example 31, [3,5-Bis(1,1-dimethylethyl)-4-hydroxphenyl][5(4H)-thioxo-1,3,4-thiadiazol-2-yl]methanone], the inhibition at 10 µM in assay [1] (A23187) amounted to 92%; in assay [2], 100%.

The record behind these values is US5102897A, “3,5-ditertiarybutyl-4-hydroxyphenyl, 1,3,4-thiadiazoles and oxadiazoles linked by carbon, oxygen, and sulfur residues” (Warner-Lambert Company, priority 1991, dated 1992).
